Results as given in PMC12678798, “Discovery of an allosteric binding site for anthraquinones at the human P2X4 receptor” (Nature Communications, 2025).
Where a chain is given by its changes, count along the chain named.

Assays:
[1] = target: T1, P2X4-Q308T receptor mutant (Homo sapiens, UniProt Q99571, Q308T); test: cell-based
T1 sequence (Q99571 1-388 Q308T): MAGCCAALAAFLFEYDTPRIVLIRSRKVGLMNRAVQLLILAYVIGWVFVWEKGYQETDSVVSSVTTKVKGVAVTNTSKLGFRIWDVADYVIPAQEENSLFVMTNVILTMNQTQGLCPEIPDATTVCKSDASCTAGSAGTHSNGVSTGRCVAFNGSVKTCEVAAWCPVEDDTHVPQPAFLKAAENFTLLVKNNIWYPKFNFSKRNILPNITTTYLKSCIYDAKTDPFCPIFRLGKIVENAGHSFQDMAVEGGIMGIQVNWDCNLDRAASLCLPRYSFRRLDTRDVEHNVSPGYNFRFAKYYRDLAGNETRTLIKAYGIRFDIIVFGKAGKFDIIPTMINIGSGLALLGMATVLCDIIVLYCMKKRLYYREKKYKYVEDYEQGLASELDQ

[2] = target: T2, chimeric P2X4(P2X2) receptor c6^N208-S216 (Homo sapiens, UniProt Q99571, I209R/N208D/S216R/T211D/T212G); parameters: expressed in transfected cells; gene synthesis (Geneart), pLVX-IRES-mCherry; method as in ref 19 (supplement); details: read-out: ATP EC50, published value, ref 19 (supplement); cited from earlier work
T2 sequence (Q99571 1-388 N208D/I209R/T211D/T212G/S216R): T1 sequence (Q99571 1-388 Q308T) with N208D, I209R, T211D, T212G, S216R, T308Q

[3] = system: chimeric receptor c1^V71-I83; parameters: method as in PMID 36328074; details: cited from earlier work
[4] = target: T3, wild-type (wt) human (h) P2X4 receptor (Homo sapiens, UniProt Q99571); test: Two-electrode voltage clamp (TEVC), wt hP2X4 in Xenopus laevis oocytes; type: cell-based; details: TEVC at -60 mV
T3 construct: host or cells: Xenopus laevis oocytes injected with cRNA (pNKS2 vector)
T3 sequence (Q99571 whole entry): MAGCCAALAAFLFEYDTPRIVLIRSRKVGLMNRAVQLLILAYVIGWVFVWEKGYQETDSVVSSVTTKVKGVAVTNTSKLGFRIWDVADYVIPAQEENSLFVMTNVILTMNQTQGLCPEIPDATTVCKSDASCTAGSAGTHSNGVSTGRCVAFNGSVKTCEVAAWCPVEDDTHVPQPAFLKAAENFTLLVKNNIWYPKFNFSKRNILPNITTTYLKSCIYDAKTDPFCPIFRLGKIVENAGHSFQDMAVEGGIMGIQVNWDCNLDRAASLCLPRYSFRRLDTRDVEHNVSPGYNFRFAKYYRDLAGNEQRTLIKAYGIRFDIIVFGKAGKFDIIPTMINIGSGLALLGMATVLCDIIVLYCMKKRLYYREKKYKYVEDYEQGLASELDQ
Description: Xenopus laevis frogs were from Nasco International (Fort Atkinson, WI, USA) and kept at the Core Facility Animal Models (CAM) of the BMC of LMU Munich, Germany (Az: 4.3.2–5682/LMU/BMC/CAM) in accordance with the EU Animal Welfare Act. […] Fifty nanoliters of cRNA (0.5 µg/µL) were injected using a Nanoject II injector (Science Products, Drummond, USA) and oocytes were kept in ND96 (96 mM NaCl, 2 mM KCl, 1 mM MgCl2, 1 mM CaCl2, 5 mM HEPES, pH 7.4–7.5) supplemented with 5 μg/mL gentamicin at 16 °C.
cDNA encoding human P2X4 receptor (NM_002560.3) was obtained from BioCat GmbH (Heidelberg, Germany) and cloned into the pNKS2 vector[87] using Gibson Assembly (E2621L, New England Biolabs, USA) according to the manufacturer’s instructions. Point mutations were introduced by site-directed mutagenesis using KLD Enzyme Mix (M0554S, New England Biolabs, USA). All constructs were verified by full-length cDNA sequencing (Eurofins Genomics, Germany). Plasmids were linearized with NotI-HF (R3189S, New England Biolabs, USA) and purified using the MinElute Reaction Cleanup Kit (Qiagen, Hilden, Germany). […]
Statistical analysis was performed with GraphPad Prism version 10 software, and data are presented as means ± SEM. Data were assessed for normality using the Shapiro–Wilk test and for homogeneity of variances using Levene’s test. […]

Nc1ncnc2c1ncn2[C@@H]1O[C@H](COP(=O)(O)OP(=O)(O)OP(=O)(O)O)[C@@H](O)[C@H]1O [ATP, Adenosine 5′-triphosphate]
EC50 ([1]; ATP EC50, P2X4-Q308T): 295 nM
EC50 ([1]; ATP pEC50 ± SEM, P2X4-Q308T): 275 nM
EC50 [2]: 572 nM
Maximal effect of ATP compared to that of the human wt P2X4 receptor [3]: 4%
EC50 [4]: ~10000 nM
